Target: T1, Nav1.7 (hNav1.7) (Homo sapiens, UniProt Q15858, F1748A/Y1755A)
T1 construct: gene SCN9A; F1737A/Y1744A mutant hNav1.7 transiently expressed in HEK293 cells
Assay: whole-cell patch clamp, % reduction of peak current at […]
Format: cell-based
Conditions: read-out: % block at 200 μM

T1 sequence (Q15858 whole entry F1748A/Y1755A): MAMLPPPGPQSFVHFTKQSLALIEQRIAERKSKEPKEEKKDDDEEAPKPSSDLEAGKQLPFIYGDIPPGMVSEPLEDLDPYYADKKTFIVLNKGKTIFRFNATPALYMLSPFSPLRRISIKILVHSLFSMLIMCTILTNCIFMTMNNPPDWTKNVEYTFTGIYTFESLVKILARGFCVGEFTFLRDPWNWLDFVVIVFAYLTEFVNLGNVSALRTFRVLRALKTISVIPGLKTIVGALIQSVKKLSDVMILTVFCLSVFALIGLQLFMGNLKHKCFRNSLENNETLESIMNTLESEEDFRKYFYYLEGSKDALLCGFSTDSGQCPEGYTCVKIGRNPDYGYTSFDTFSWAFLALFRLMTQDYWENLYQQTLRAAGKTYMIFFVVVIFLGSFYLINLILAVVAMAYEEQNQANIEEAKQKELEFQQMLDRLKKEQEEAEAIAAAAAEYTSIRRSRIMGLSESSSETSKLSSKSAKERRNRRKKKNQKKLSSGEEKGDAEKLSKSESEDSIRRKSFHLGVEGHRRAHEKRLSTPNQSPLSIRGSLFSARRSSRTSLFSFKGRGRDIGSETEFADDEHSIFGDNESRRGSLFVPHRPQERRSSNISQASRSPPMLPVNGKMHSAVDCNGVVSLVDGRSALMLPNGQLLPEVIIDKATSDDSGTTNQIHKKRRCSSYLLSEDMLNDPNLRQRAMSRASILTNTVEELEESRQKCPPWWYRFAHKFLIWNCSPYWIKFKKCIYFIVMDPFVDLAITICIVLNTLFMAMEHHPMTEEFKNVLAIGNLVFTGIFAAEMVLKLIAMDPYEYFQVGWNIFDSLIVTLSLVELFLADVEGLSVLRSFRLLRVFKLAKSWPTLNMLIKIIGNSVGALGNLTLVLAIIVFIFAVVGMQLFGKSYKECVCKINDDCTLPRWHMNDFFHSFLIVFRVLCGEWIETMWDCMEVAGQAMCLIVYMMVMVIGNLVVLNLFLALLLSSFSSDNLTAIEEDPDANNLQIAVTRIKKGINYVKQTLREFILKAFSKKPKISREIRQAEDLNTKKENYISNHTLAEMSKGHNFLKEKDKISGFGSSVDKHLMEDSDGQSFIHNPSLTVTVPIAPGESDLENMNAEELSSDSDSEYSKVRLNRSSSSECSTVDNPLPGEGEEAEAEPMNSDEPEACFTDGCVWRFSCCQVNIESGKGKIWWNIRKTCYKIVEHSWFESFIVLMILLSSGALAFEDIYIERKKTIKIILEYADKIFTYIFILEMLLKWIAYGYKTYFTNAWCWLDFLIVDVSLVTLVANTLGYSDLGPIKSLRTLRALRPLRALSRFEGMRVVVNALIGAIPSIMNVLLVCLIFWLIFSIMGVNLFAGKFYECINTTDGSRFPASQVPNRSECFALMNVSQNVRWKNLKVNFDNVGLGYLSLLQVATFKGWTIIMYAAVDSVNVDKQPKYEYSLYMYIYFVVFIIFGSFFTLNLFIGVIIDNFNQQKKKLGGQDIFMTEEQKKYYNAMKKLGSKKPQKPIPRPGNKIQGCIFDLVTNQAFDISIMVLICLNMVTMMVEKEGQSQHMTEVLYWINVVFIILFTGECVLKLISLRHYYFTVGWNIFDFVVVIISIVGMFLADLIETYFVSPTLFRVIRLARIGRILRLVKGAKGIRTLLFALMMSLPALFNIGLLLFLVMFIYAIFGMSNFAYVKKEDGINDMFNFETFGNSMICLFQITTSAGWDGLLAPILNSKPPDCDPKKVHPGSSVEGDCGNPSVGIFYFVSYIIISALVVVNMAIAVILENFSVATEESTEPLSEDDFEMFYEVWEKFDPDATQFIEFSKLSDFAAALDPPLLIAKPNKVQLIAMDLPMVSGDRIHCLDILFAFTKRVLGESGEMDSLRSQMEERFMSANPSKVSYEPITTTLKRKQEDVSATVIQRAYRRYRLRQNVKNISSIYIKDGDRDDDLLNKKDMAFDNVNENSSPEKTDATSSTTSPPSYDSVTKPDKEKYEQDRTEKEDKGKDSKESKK

SMILES: N#Cc1c(O)c2c(-c3ccc(-c4ccccc4O)cc3)csc2[nH]c1=O [A769662]
- inhibition at 200 µM: 38%
